Reference: paper PMC9396657, “Directed Evolution of (R)-2-Hydroxyglutarate Dehydrogenase Improves 2-Oxoadipate Reduction by 2 Orders of Magnitude” (ACS Synthetic Biology, 2022)

Key:
Assay in all cases: NADH oxidation at […] nm, initial rates
Format in all cases: biochemical
Hgdh [1] = biological target: T1, Hgdh (Acidaminococcus fermentans, UniProt D2RJU7, V11K/V11M/A206V/A214V/E304K, form not given); settings: 0.25 mM NADH, 50 mM phosphate pH 8, 25 °C, apparent, residue 11 contradictory: V11K, A2 is the extra cloning Ala
T1 construct: full length, codon-optimized, expressed in E. coli BL21(DE3) from pET-28b, extra Ala after start Met, C-terminal thrombin site and His tag (kept), homodimer of 75 kDa

Hgdh [2] = biological target: T2, Hgdh (Acidaminococcus fermentans, UniProt D2RJU7); settings: 0.25 mM NADH, 50 mM phosphate pH 8, 25 °C; apparent (Km of NADH not determined)
T2 construct: full length, codon-optimized, expressed in E. coli BL21(DE3) from pET-28b, extra Ala after start Met, C-terminal thrombin site and His tag (kept), homodimer of 75 kDa

Hgdh [3] = biological target: T3, Hgdh (Acidaminococcus fermentans, UniProt D2RJU7, V11K/V11M/A206V/A214V/V312I, form not given); settings: 0.25 mM NADH, 50 mM phosphate pH 8, 25 °C, apparent, residue 11 contradictory: V11K, A2 is the extra cloning Ala
T3 construct: full length, codon-optimized, expressed in E. coli BL21(DE3) from pET-28b, extra Ala after start Met, C-terminal thrombin site and His tag (kept), homodimer of 75 kDa

Hgdh [4] = biological target: T4, Hgdh (Acidaminococcus fermentans, UniProt D2RJU7, V11K/V11M/A206V/A214D/K307I, form not given); settings: 0.25 mM NADH, 50 mM phosphate pH 8, 25 °C, apparent, residue 11 contradictory: V11K, A2 is the extra cloning Ala
T4 construct: full length, codon-optimized, expressed in E. coli BL21(DE3) from pET-28b, extra Ala after start Met, C-terminal thrombin site and His tag (kept), homodimer of 75 kDa
T4 sequence (D2RJU7 whole entry, stated change not applied): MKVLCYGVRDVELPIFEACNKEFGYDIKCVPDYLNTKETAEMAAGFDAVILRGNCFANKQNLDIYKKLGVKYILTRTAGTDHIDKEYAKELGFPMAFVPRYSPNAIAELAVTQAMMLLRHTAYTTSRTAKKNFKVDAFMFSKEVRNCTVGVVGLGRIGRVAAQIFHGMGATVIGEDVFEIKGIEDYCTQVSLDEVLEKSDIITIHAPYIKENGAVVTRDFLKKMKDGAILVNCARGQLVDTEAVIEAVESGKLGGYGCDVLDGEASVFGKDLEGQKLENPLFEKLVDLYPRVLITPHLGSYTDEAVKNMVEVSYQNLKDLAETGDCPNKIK

T2 sequence (D2RJU7 whole entry): as the sequence (D2RJU7 whole entry, stated change not applied) above
T1 sequence (D2RJU7 whole entry, stated change not applied): as above
T3 sequence (D2RJU7 whole entry, stated change not applied): as above

O=C(O)CCCC(=O)C(=O)O [2-oxoadipate]
Km (Hgdh [1]): 4.18 ± 0.2 mM
Km (Hgdh [2]): 2.96 ± 0.24 mM
Km (Hgdh [3]): 9.72 ± 0.67 mM
Km (Hgdh [4]): 3.05 ± 0.24 mM
